In patent US12371454B2, “Cyclic peptide compound having Kras inhibitory action” (priority 2019, dated 2025) one finds IC50 data, which are given here for 10 compounds.

Positions of bridges follow the written chain, without caps; N, C: chain ends. Non-standard residues stand in square brackets, D forms with d. Residues, ends and D or L forms follow the SMILES beside them. *: point of attachment. hPhe(3-Cl-4-CF3) = N[C@@H](CCc1ccc(C(F)(F)F)c(Cl)c1)C(=O)O; hPhe(3-F,4-CF3) = N[C@@H](CCc1ccc(C(F)(F)F)c(F)c1)C(=O)O; hPhe(4-CF3) = N[C@@H](CCc1ccc(C(F)(F)F)cc1)C(=O)O; NMePhe(4-Cl) = CN[C@@H](Cc1ccc(Cl)cc1)C(=O)O; Phe(3-I) = N[C@@H](Cc1cccc(I)c1)C(=O)O; Met(O2) = CS(=O)(=O)CC[C@H](N)C(=O)O; NMeCha = CN[C@@H](CC1CCCCC1)C(=O)O; NMeChg = CN[C@H](C(=O)O)C1CCCCC1; NMeF = CN[C@@H](Cc1ccccc1)C(=O)O; NMeD = CN[C@@H](CC(=O)O)C(=O)O; NMeL = CN[C@@H](CC(C)C)C(=O)O; Cba = N[C@@H](CC1CCC1)C(=O)O; Chg = N[C@H](C(=O)O)C1CCCCC1; NMePra = C#CC[C@H](NC)C(=O)O; NMeV = CN[C@H](C(=O)O)C(C)C; d(β3hA) = C[C@@H](N)CC(=O)O; Pip = O=C(O)[C@@H]1CCCCN1; NMeA = CN[C@@H](C)C(=O)O; NMeAib = CNC(C)(C)C(=O)O; Piperidide = C1CCN(*)CC1; Ac5c = NC1(C(=O)O)CCCC1; Aze = O=C(O)[C@@H]1CCN1; Aib = CC(C)(N)C(=O)O; Sar = CNCC(=O)O

As usually defined, the IC50 is the point on the concentration scale where inhibition reaches its midpoint.

The target in the experiment is T1, Kras and SOS1 (biotin-tagged human Kras loaded with GDP, His-tagged human SOS1) (Homo sapiens, UniProt P01116, G12D).
T1 construct: made in house; host or cells: E. coli (stated for Kras only)
T1 sequence (P01116 1-188 isoform P01116-2 G12D): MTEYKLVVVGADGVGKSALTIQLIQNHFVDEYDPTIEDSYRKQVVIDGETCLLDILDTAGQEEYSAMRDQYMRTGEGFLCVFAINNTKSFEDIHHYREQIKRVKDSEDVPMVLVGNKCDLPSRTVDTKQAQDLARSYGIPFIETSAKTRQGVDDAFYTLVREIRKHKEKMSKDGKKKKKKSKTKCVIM
The experiment in a line: Protein-protein interaction inhibition between Kras and SOS1 (KrasGl2D-SOS PPI) using AlphaScreen. It counts as binding. The note with it: AlphaScreen; biotin-tagged human Kras loaded with GDP, His-tagged human SOS1; read-out: KRAS G12D-SOS PPI IC50. The method, boiled down: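 Kras was produced in E. coli, purified, then loaded with GDP. It was paired via streptavidin acceptor beads with His-SOS1 held on nickel donor beads, and proximity signal at 520-620 nm was read after 680 nm illumination.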
(In general: Alpha assays give light when donor and acceptor beads are brought close together.)
In the case of `CC[C@H](C)[C@@H]1NC(=O)[C@H](CC(C)C)N(C)C(=O)C[C@@H](C(=O)N2CCCCC2)N(C)C(=O)[C@H](C2CCCCC2)N(C)C(=O)C2(CCCC2)NC(=O)[C@@H](C)NC(=O)[C@H](CCc2ccc(C(F)(F)F)c(Cl)c2)NC(=O)CN(C)C(=O)[C@H](CC2CCCCC2)N(C)C(=O)CN(C)C(=O)CN(C)C1=O` [Compound 277] ([NMeL]I[Sar][Sar][NMeCha][Sar][hPhe(3-Cl-4-CF3)][dA][Ac5c][NMeChg][NMeD]-Piperidide; lactam N-11), the 50% inhibitory concentration (IC50) worked out at 5.1 nM.

As to `CC(C)C[C@H]1C(=O)N[C@@H](C2CCCCC2)C(=O)N(C)CC(=O)N(C)CC(=O)N(C)[C@@H](CC2CCCCC2)C(=O)N(C)CC(=O)N[C@@H](CCc2ccc(C(F)(F)F)c(Cl)c2)C(=O)N2CCC[C@H]2C(=O)NC2(CCCC2)C(=O)N(C)[C@@H](C(C)C)C(=O)N(C)[C@H](C(=O)N2CCCCC2)CC(=O)N1C` [Compound 281] ([NMeL][Chg][Sar][Sar][NMeCha][Sar][hPhe(3-Cl-4-CF3)]P[Ac5c][NMeV][NMeD]-Piperidide; lactam N-11), the 50% inhibitory concentration (IC50) worked out at 7.8 nM.

Consider `CC(C)C[C@H]1C(=O)N[C@@H](CCS(C)(=O)=O)C(=O)N(C)CC(=O)N(C)CC(=O)N(C)[C@@H](CC2CCCCC2)C(=O)N(C)CC(=O)N[C@@H](CCc2ccc(C(F)(F)F)c(Cl)c2)C(=O)N2CCC[C@H]2C(=O)NC2(CCCC2)C(=O)N(C)[C@@H](C2CCCCC2)C(=O)N(C)[C@H](C(=O)N2CCCCC2)CC(=O)N1C` [Compound 283] ([NMeL][Met(O2)][Sar][Sar][NMeCha][Sar][hPhe(3-Cl-4-CF3)]P[Ac5c][NMeChg][NMeD]-Piperidide; lactam N-11), for which the half-inhibitory concentration (IC50) was determined as 6.8 nM.

On to `C#CC[C@H]1C(=O)N(C)[C@H](C(=O)N2CCCCC2)CC(=O)N(C)[C@@H](CC(C)C)C(=O)N[C@@H]([C@@H](C)CC)C(=O)N(C)CC(=O)N(C)CC(=O)N(C)[C@@H](CC2CCCCC2)C(=O)N(C)CC(=O)N[C@@H](CCc2ccc(C(F)(F)F)c(Cl)c2)C(=O)N2CCC[C@H]2C(=O)NC2(CCCC2)C(=O)N1C` [Compound 284] ([NMeL]I[Sar][Sar][NMeCha][Sar][hPhe(3-Cl-4-CF3)]P[Ac5c][NMePra][NMeD]-Piperidide; lactam N-11), for which the IC50 amounted to 71 nM.

For the compound `CC[C@H](C)[C@@H]1NC(=O)[C@@H]2CCCCN2C(=O)C[C@@H](C)NC(=O)[C@H](CC(C)C)N(C)C(=O)C(C)(C)NC(=O)[C@H](CC(C)C)N(C)C(=O)[C@H](CCc2ccc(C(F)(F)F)cc2)NC(=O)CN(C)C(=O)[C@H](Cc2ccc(Cl)cc2)N(C)C(=O)CN(C)C(=O)CN(C)C1=O` [Compound 286] (cyclo([Aib][NMeL][d(β3hA)][Pip]I[Sar][Sar][NMePhe(4-Cl)][Sar][hPhe(4-CF3)][NMeL])), the IC50 was 96 nM.

As to `CC(C)C[C@H]1C(=O)N[C@@H](CC2CCC2)C(=O)N(C)CC(=O)N(C)CC(=O)N(C)[C@@H](CC2CCCCC2)C(=O)N(C)CC(=O)N[C@@H](CCc2ccc(C(F)(F)F)c(Cl)c2)C(=O)N2CCC[C@H]2C(=O)NC2(CCCC2)C(=O)N(C)[C@@H](C(C)C)C(=O)N[C@H](C)CC(=O)N1C` [Compound 290] (cyclo([Ac5c][NMeV][d(β3hA)][NMeL][Cba][Sar][Sar][NMeCha][Sar][hPhe(3-Cl-4-CF3)]P)), the IC50 came out at 160 nM.

For `CC[C@H](C)[C@@H]1NC(=O)[C@H](C)N(C)C(=O)C[C@@H](C(=O)N2CCCCC2)N(C)C(=O)[C@H](C(C)C)N(C)C(=O)C2(CCCC2)NC(=O)[C@@H]2CCCN2C(=O)[C@H](CCc2ccc(C(F)(F)F)c(Cl)c2)NC(=O)[C@H]2CCCN2C(=O)[C@H](CC2CCCCC2)N(C)C(=O)[C@@H]2CCN2C(=O)[C@H](C)N(C)C1=O` [Compound 293] ([NMeA]I[NMeA][Aze][NMeCha][dP][hPhe(3-Cl-4-CF3)]P[Ac5c][NMeV][NMeD]-Piperidide; lactam N-11), the IC50 came out at 120 nM.

For the compound `CC[C@H](C)[C@@H]1NC(=O)[C@H](CC(C)C)N(C)C(=O)C[C@@H](C(=O)N2CCCCC2)N(C)C(=O)[C@H](CC(C)C)NC(=O)C(C)(C)N(C)C(=O)[C@H](CC(C)C)NC(=O)[C@H](Cc2cccc(I)c2)NC(=O)CN(C)C(=O)[C@H](Cc2ccc(Cl)cc2)N(C)C(=O)CN(C)C(=O)CN(C)C1=O` [Compound 295] ([NMeL]I[Sar][Sar][NMePhe(4-Cl)][Sar][Phe(3-I)]L[NMeAib]L[NMeD]-Piperidide; lactam N-11), the IC50 came out at 68 nM.

In the case of `CC[C@H](C)[C@@H]1NC(=O)[C@H](CC(C)C)N(C)C(=O)C[C@@H](C(=O)N2CCCCC2)NC(=O)[C@H](CC(C)C)N(C)C(=O)C2(CCCC2)NC(=O)[C@@H]2CCCN2C(=O)[C@H](CCc2ccc(C(F)(F)F)c(F)c2)NC(=O)CN(C)C(=O)[C@H](CC2CCCCC2)N(C)C(=O)CN(C)C(=O)CN(C)C1=O` [Compound 298] ([NMeL]I[Sar][Sar][NMeCha][Sar][hPhe(3-F,4-CF3)]P[Ac5c][NMeL]D-Piperidide; lactam N-11), the half-inhibitory concentration (IC50) is 21 nM.

For the compound `CC[C@H](C)[C@@H]1NC(=O)[C@H](C)N(C)C(=O)C[C@@H](C)NC(=O)[C@H](CC(C)C)N(C)C(=O)[C@H](Cc2ccccc2)N(C)C(=O)[C@@H]2CCCCN2C(=O)[C@H](CCc2ccc(C(F)(F)F)cc2)NC(=O)CN(C)C(=O)[C@H](Cc2ccc(Cl)cc2)N(C)C(=O)CN(C)C(=O)CN(C)C1=O` [Compound 299] (cyclo(I[Sar][Sar][NMePhe(4-Cl)][Sar][hPhe(4-CF3)][Pip][NMeF][NMeL][d(β3hA)][NMeA])), the IC50 was 130 nM.
